Patent publication US6914045B2, “Glycopeptide antibiotics” (Wyeth Holdings Corporation, priority 2001, dated 2005)
Numbered stars: 1 amine (or outer) side, 2 acyl side, 3 side chain; on linkers, the order of the positions; unused ones are H or OH. Square brackets hold non-standard residues; d marks the D form. Peptide text beside a SMILES is read from it. ξ: configuration not given here. X6 = N=C1NCC(CC(N[*:1])C(=O)[*:2])N1C1OC(CO)C(O)C(O)C1O; Tyr(3-NO2) = N[CH](Cc1ccc(O)c([N+](=O)[O-])c1)C(=O)O; X7 = N=C1NCC(CC(N[*:1])C(=O)[*:2])N1; ξPhe(βξ-Me) = CC(c1ccccc1)C(N)C(=O)O

What was measured:
Assay in all cases: in vitro antibacterial evaluation, MIC by broth dilution
Format in all cases: cell-based
Settings in all cases: broth dilution, 18 hours at 35° C.
Escherichia coli = test system: Escherichia coli
Outline: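 Broth dilution in Muller-Hinton II medium per NCCLS standard M7-A2, with an inoculum of 5×10^5 CFU/mL and antibiotic tested over 64-0.06 μg/mL. MIC was taken as the lowest concentration inhibiting visible growth.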

Staphylococcus sp. = test system: Staphylococcus sp.
Protocol: (§1) Methods for in vitro Antibacterial Evaluation (Table 1)
(§2) The minimum inhibitory concentration (MIC), the lowest concentration of the antibiotic which inhibits growth of the test organism, is determined by the broth dilution method using Muller-Hinton II […] (Baltimore Biological Laboratories) following the recommendations of the National Committee for Clinical Laboratory Standards [Methods for dilution antimicrobial susceptibility tests for bacteria that grow aerobically, approved standard M7-A2, National Committee for Clinical Laboratory Standards, Villanova, Pa.].
(§3) An inoculum level of 5×10^5 CFU/mL, and a range of antibiotic concentrations (64-0.06 μg/mL) is used. […] The test organisms include a spectrum of Gram-positive bacteria comprised of Staphylococcus sp., Streptococcus sp. and Enterococcus sp. These organisms include recent clinical isolates that are resistant to methicillin, penicillin and/or vancomycin.

Enterococcus sp. = test system: Enterococcus sp.
Protocol: as §1, §2, §3

Streptococcus sp. = test system: Streptococcus sp.
Protocol: as §1, §2, §3

CC(c1ccccc1)C1NC(=O)CNC(=O)C(CO)NC(=O)C(CC2CNC(=N)N2C2OC(CO)C(O)C(O)C2O)NC(=O)C(CC2CNC(=N)N2)NC(=O)C(Cc2ccc(O)c([N+](=O)[O-])c2)NC1=O (stereo not drawn) [Example 10, Cyclo[3-(2-iminoimidazolidin-4-yl)alanyl-3-(3-hexopyranosyl-2-iminoimidazolidin-4-yl)-alanylserylglycyl-β-methylphenylalanyl-3-nitrotyrosyl]] (cyclo(G[ξPhe(βξ-Me)][Tyr(3-NO2)][X7][X6]S); configuration not given here)
>64 µg/mL: MIC Escherichia coli (ATCC 25922) (Escherichia coli; strain ATCC 25922) | MIC Escherichia coli (GC 4559) (Escherichia coli; strain GC 4559) | MIC Escherichia coli (GC 4560) (Escherichia coli; strain GC 4560) | MIC Staphylococcus aureus (ATCC 29213) (Staphylococcus sp.; strain ATCC 29213) | MIC Staphylococcus aureus (GC 1131) (Staphylococcus sp.; strain GC 1131) | MIC Staphylococcus aureus (GC 3051) (Staphylococcus sp.; strain GC 3051) | MIC Staphylococcus aureus (GC 3053) (Staphylococcus sp.; strain GC 3053) | MIC Staphylococcus aureus (GC 4541) (Staphylococcus sp.; strain GC 4541) | MIC Staphylococcus aureus (GC 4542) (Staphylococcus sp.; strain GC 4542) | MIC Staphylococcus aureus-SMITH (GC 4543) (Staphylococcus sp.; strain GC 4543) | MIC Staphylococcus aureus (GC 4544) (Staphylococcus sp.; strain GC 4544) | MIC Staphylococcus aureus (GC 4545) (Staphylococcus sp.; strain GC 4545) | MIC Staphylococcus haemolyticus (GC 4546) (Staphylococcus sp.; strain GC 4546) | MIC Coagulase Negative Staphylococcus (GC 4547) (Staphylococcus sp.; strain GC 4547) | MIC Coagulase Negative Staphylococcus (GC 4548) (Staphylococcus sp.; strain GC 4548) | MIC Coagulase Negative Staphylococcus (GC 4549) (Staphylococcus sp.; strain GC 4549) | MIC Coagulase Negative Staphylococcus (GC 4551) (Staphylococcus sp.; strain GC 4551) | MIC Coagulase Negative Staphylococcus (GC 6257) (Staphylococcus sp.; strain GC 6257) | MIC Enterococcus faecalis (ATCC 29212) (Enterococcus sp.; strain ATCC 29212) | MIC Enterococcus faecalis (GC 2242) (Enterococcus sp.; strain GC 2242) | MIC Enterococcus faecium (GC 2243) (Enterococcus sp.; strain GC 2243) | MIC Enterococcus faecalis (GC 2691) (Enterococcus sp.; strain GC 2691) | MIC Enterococcus faecalis (GC 3059) (Enterococcus sp.; strain GC 3059) | MIC Enterococcus faecalis (GC 4552) (Enterococcus sp.; strain GC 4552) | MIC Enterococcus faecalis (GC 4553) (Enterococcus sp.; strain GC 4553) | MIC Enterococcus faecalis (GC 4554) (Enterococcus sp.; strain GC 4554) | MIC Enterococcus faecium (GC 4556) (Enterococcus sp.; strain GC 4556) | MIC Enterococcus faecium (GC 4557) (Enterococcus sp.; strain GC 4557) | MIC Enterococcus avium (GC 4558) (Enterococcus sp.; strain GC 4558) | MIC Enterococcus faecalis (GC 6189) (Enterococcus sp.; strain GC 6189) | MIC Streptococcus pneumoniae (ATCC 6301) (Streptococcus sp.; strain ATCC 6301) | MIC Streptococcus pneumoniae (GC 1894) (Streptococcus sp.; strain GC 1894) | MIC Streptococcus pyogenes (GC 4563) (Streptococcus sp.; strain GC 4563) | MIC Streptococcus agalactiae (GC 4564) (Streptococcus sp.; strain GC 4564) | MIC Streptococcus pneumoniae (GC 4565) (Streptococcus sp.; strain GC 4565)
